Data: patent US7368434B2, “Compounds useful for the inhibition of ALDH” (The Endowment for Research in Human Biology, Inc., priority 2002, dated 2008)
Where “and” joins values, the source holds several entries; their conditions need not be identical. Equal entries are not always repeated. Where two headings read alike, the source gives them in different places.

Legend:
[1] = taken from Fujita et al. (1964); cited from earlier work
[2] = test system: MAO; experiment: MAO activity assay (membrane fraction of hamster liver mitochondria lysate); assay type: biochemical; details: for IC50: read-out: MAO inhibition IC50
Description: (§1) Several of the synthesized compounds were tested for MAO and ALDH-2 suppression activity. The membrane and supernatant fractions of the lysate of a gradient purified hamster liver mitochondria preparation were used as sources of MAO and ALDH-2, respectively. ALDH-2 and MAO activity assays were performed according to established procedures (Rooke et al. (2000) J. Med. Chem. 43:4169).

[3] = biological target: T1, ALDH-2 (Mesocricetus auratus, UniProt P81178); experiment: ALDH-2 activity assay (supernatant of hamster liver mitochondria lysate); assay type: biochemical; details: for IC50: read-out: ALDH-2 inhibition IC50
T1 construct: membrane and supernatant fractions of the lysate of a gradient purified hamster liver mitochondria preparation; from tissue; host or cells: hamster liver mitochondria, supernatant fraction of the lysate
T1 sequence (P81178 20-519): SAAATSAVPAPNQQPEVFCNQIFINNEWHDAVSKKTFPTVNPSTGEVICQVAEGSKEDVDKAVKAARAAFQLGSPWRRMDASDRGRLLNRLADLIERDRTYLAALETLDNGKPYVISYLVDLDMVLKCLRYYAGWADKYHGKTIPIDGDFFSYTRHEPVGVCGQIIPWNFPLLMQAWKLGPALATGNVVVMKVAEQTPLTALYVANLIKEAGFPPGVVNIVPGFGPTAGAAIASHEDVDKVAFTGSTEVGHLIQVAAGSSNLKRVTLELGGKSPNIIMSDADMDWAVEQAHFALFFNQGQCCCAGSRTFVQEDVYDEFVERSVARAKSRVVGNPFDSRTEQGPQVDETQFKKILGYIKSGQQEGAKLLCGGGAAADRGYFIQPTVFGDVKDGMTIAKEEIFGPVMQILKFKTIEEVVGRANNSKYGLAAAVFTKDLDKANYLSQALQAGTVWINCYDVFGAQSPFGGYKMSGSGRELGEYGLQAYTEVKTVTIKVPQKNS
Description: as §1

[4] = test system: golden hamsters; experiment: Ethanol drinking experiments, two-bottle choice; assay type: in vivo; details: 0.07 mmol/day/hamster for 5 consecutive days
Description: Effects of the newly synthesized analogs on hamster ethanol intake were determined according to the method described below. Animals were male adult golden hamsters (outbred, Lakeview Lak: LVG[SYR]), purchased from Charles River Laboratories, Wilmington, Mass. 01887 or Harlan Sprague Dawley, Inc., Indianapolis, Ind. 46229. Upon arrival, hamsters were housed in a room maintained at 23° C., 35-45% humidity, with a 12/12 hr light/dark cycle (light on 0600-1800 hr), ad libitum access to Purina Chow (5001) and a 15% v/v ethanol solution. After a week, each hamster was transferred to an individual stainless steel cage (26×18×17.5 cm). Two 50 ml drinking bottles, one containing water and the other a 15% ethanol solution, were provided continuously. The bottles were placed in holders equipped with tilted platforms which direct spillage to tubes placed outside of the cages. The positions of the two drinking bottles on each cage were altered daily to prevent development of positional preference. Fluid intake was measured at 0900 hr each day. Hamsters that drank significant (>8 ml/day) and consistent (daily variance <±20%) amounts of ethanol solution were selected for testing. To establish baseline ethanol and water intake, 1 ml sterile saline was administered daily to each hamster between 1500-1600 hr for 6 days (saline control period, Day 1 to Day 6). A daily dose of 0.07 mmol of test compound was then administered for 5 consecutive days (treatment period, Day 7 to Day 11). After the last dose, ethanol and water intake were monitored for another 6 days (post treatment period, Day 12 to Day 17). […] At an equivalent dose, daidzin suppressed ethanol intake by about 55% (Table 1).

[5] = test system: 5-HT metabolism in brain slices; experiment: 5-HT metabolism in hamster brain slices; assay type: cell-based
Excerpt: (§2) The effects of daidzin on monoamine metabolism were studied in hamster and rat liver and brain using tissue slices using 5-HT as the substrate. The effects of ethanol drinking on 5-HT metabolism in hamster liver and brain were examined. Freshly removed tissues were cut into small pieces (about 1 mm cubes) with a tissue-slicer, suspended in ice-cold phosphate buffered saline (PBS) (0.1 g/ml), and forced through a mesh 40 stainless steel screen mounted on a Millipore Swinnex Filter Holder. The minced tissues were allowed to sediment on ice before PBS was removed using a Pasteur pipette. The tissue slices were washed 5 more times each with 10 volumes of ice-cold PBS. After the final wash, tissues were suspended in 1 volume of PBS and dispensed using a micro-pipette with tips of i.d.=2 mm. 5-HT metabolism catalyzed by the tissue slices was assayed in a 1 ml assay medium containing PBS, 1 μM 5-HT, 100:1 tissue slices, and specified concentrations of daidzin or ethanol. Reactions were initiated by the addition of tissues and allowed to proceed for 30 min at 37° C. in a shaking water bath. Reactions were terminated by addition of 0.1 ml ice-cold 1 M HClO4, and 10 mM EDTA. […] Contents of 5-HT, 5-HIAL, 5-HTOL and 5-HIAA in the supernatants were analyzed by HPLC as described before (Rooke et al. (2000) J. Med. Chem. 43:4169).

[6] = test system: 5-HT metabolism in brain slices; experiment: 5-HT metabolism in rat brain slices; assay type: cell-based
Excerpt: as §2

[7] = test system: Syrian golden hamsters (Meso cricetus auratus); experiment: Oral potency: compound mixed in chow, two-bottle free-choice ethanol intake; assay type: in vivo; details: for Ethanol intake reduced by: oral
Description: The oral potency of hexzein (7-O-ω-carboxypentyldaidzein) in reducing ethanol intake in Syrian golden hamsters (Meso cricetus auratus) was examined under a two-bottle free-choice protocol. Hexzein was mixed with Purina rodent meal (5755M) at 0 mg: 1 g (control), 2 mg: 1 g, 4 mg: 1 g, and 5 mg: 1 g ratios and the mixtures were pressed into 1×1×0.5 inch pellets. Food pellets, ethanol solution and water were provided continuously throughout the study and their intake were measured every day at 5 pm. Hexzein given in this manner did reduce ethanol intake. Ethanol intake in hamsters on 2 mg/g, 4 mg/g, and 5 mg/g hexzein-Chow were reduced by 18.3±3.8%, 47.8±7.4% and 56.5±5.4%, respectively.

[8] = Tissue distribution study, liver of hamsters on compound-Chow; assay type: in vivo, hamster
[9] = test system: 5-HT metabolism in hamster liver slices; experiment: 5-HT metabolism catalyzed by hamster liver slices; assay type: cell-based
Excerpt: (§3) The effects of daidzin on monoamine metabolism were studied in hamster and rat liver and brain using tissue slices using 5-HT as the substrate. The effects of ethanol drinking on 5-HT metabolism in hamster liver and brain were examined. Freshly removed tissues were cut into small pieces (about 1 mm cubes) with a tissue-slicer, suspended in ice-cold phosphate buffered saline (PBS) (0.1 g/ml), and forced through a mesh 40 stainless steel screen mounted on a Millipore Swinnex Filter Holder. The minced tissues were allowed to sediment on ice before PBS was removed using a Pasteur pipette. The tissue slices were washed 5 more times each with 10 volumes of ice-cold PBS. After the final wash, tissues were suspended in 1 volume of PBS and dispensed using a micro-pipette with tips of i.d.=2 mm. 5-HT metabolism catalyzed by the tissue slices was assayed in a 1 ml assay medium containing PBS, 1 μM 5-HT, 100:1 tissue slices, and specified concentrations of daidzin or ethanol. Reactions were initiated by the addition of tissues and allowed to proceed for 30 min at 37° C. in a shaking water bath. Reactions were terminated by addition of 0.1 ml ice-cold 1 M HClO4, and 10 mM EDTA. Samples were kept on ice for 30 min and centrifuged to obtained clear supernatants. Contents of 5-HT, 5-HIAL, 5-HTOL and 5-HIAA in the supernatants were analyzed by HPLC as described before (Rooke et al. (2000) J. Med. Chem. 43:4169).

[10] = test system: 5-HT metabolism in rat liver slices; experiment: 5-HT metabolism catalyzed by rat liver slices; assay type: cell-based
Excerpt: as §3

[11] = Urine [5-HTOL]/[5-HIAA] ratio after daidzin administration; assay type: in vivo; details: dose that would suppress hamster ethanol intake by about 50%
[12] = test system: ethanol-preferring Syrian golden hamsters; details: cited from earlier work
[13] = test system: rats; details: cited from earlier work
[14] = test system: isolated hamster liver mitochondria; details: cited from earlier work
[15] = test system: isolated rat liver mitochondria; details: cited from earlier work

## 4′-Bromoisoflavone 7-ω-Ethoxycarbonylpentyl Ether [Analog 26]
[1]
  π (hydrophobic constant of the 4′-substituent): 0.86

## 7-Ethoxycarbonylpentyl-4′-Aminoisoflavone [Analog 33]
[1]
  π (hydrophobic constant of the 4′-substituent): −1.23

## O=c1c(-c2ccccc2)coc2cc(O)ccc12 [Analog 1]
[2]
  IC50: 8.6 µM

## COc1ccc2c(=O)c(-c3ccc(O)cc3)coc2c1 [Analog 2, 7-Methoxy-4′-Hydroxyisoflavone]
[1]
  π (hydrophobic constant of the 4′-substituent): −0.67

## COc1ccc2c(=O)c(-c3ccccc3)coc2c1 [Analog 3, 7-Methoxyisoflavone]
[1]
  π (hydrophobic constant of the 4′-substituent): 0.00

## CCOC(=O)CCCCCOc1ccc2c(=O)c(-c3ccccc3)coc2c1 [Analog 7, 7-O-Ethoxycarbonylpentylisoflavone]
[1]
  π (hydrophobic constant of the 4′-substituent): 0.00

## CC(=O)Oc1ccc2c(=O)c(-c3ccccc3)coc2c1 [Analog 10]
[3]
  IC50: 0.14 to 8 µM

## O=C1c2ccccc2C(=O)N1CCCCOc1ccc2c(=O)c(-c3ccccc3)coc2c1 [Analog 14]
[3]
  IC50: 0.14 to 8 µM
[2]
  MAO inhibition (in words): none of the 4′-H series (analogs 3, 5, 7, 9, 12 and 14) had any effect on MAO
[4]
  EtOH intake suppression, %: 37 ± 3%

## O=c1c(-c2ccc(O)cc2)coc2cc(OCn3nnc4ccccc43)ccc12 [Analog 18]
[3]
  IC50: 0.14 to 8 µM

## CCOC(=O)c1oc2cc(O)ccc2c(=O)c1-c1ccccc1 [Analog 20, 2-Ethoxycarbonyl-7-Hydroxyisoflavone]
other
  melting point: 213 to 214 °C

## CCOC(=O)c1oc2cc(O)ccc2c(=O)c1-c1ccccc1 [Analog 20]
[3]
  ALDH-2 inhibition (in words): no effect on ALDH-2 activity

## O=C(O)c1oc2cc(O)ccc2c(=O)c1-c1ccccc1 [Analog 21, 2-Carboxy-7-Hydroxyisoflavone]
other
  melting point: 257 to 258 °C

## O=c1c(-c2ccc(F)cc2)coc2cc(O)ccc12 [Analog 23]
[2]
  IC50: 1.5 µM

## CCOC(=O)CCCCCOc1ccc2c(=O)c(-c3ccc(F)cc3)coc2c1 [Analog 24, 7-O-Ethoxycarbonylpentyl-4′-Fluoroisoflavone]
[1]
  π (hydrophobic constant of the 4′-substituent): 0.14

## O=c1c(-c2ccc(Br)cc2)coc2cc(O)ccc12 [Analog 25, 7-Hydroxy-4′-Bromoisoflavone]
other
  melting point: 266 to 268 °C

## O=c1c(-c2ccc(Br)cc2)coc2cc(O)ccc12 [Analog 25]
[2]
  IC50: 1 µM

## CCOC(=O)CCCCCOc1ccc2c(=O)c(-c3ccc([N+](=O)[O-])cc3)coc2c1 [Analog 28, 7-O-Ethoxycarbonylpentyl-4′-Nitroisoflavone]
[1]
  π (hydrophobic constant of the 4′-substituent): −0.28

## Cc1ccc(-c2coc3cc(O)ccc3c2=O)cc1 [Analog 29]
[2]
  IC50: 9 µM

## CCOC(=O)CCCCCOc1ccc2c(=O)c(-c3ccc(C)cc3)coc2c1 [Analog 30, 7-O-Ethoxycarbonylpentyl-4′-Methylisoflavone]
[1]
  π (hydrophobic constant of the 4′-substituent): 0.56

## Nc1ccc(-c2coc3cc(O)ccc3c2=O)cc1 [Analog 32]
[2]
  IC50: 12 µM and > 9 µM

## COc1ccc2c(=O)c(-c3ccccc3)coc2c1OC [Analog 34, 7,8-Dimethoxyisoflavone]
other
  melting point: 143 to 144 °C

## COc1ccc2c(=O)c(-c3ccccc3)coc2c1OC [Analog 34]
[3]
  ALDH-2 inhibition (in words): completely abolished ALDH-2 inhibitory activities
[2]
  Potency for MAO inhibition compared with counterpart analogs (in words): substantially decreased potencies for MAO inhibition

## CCc1ccc2c(=O)c(-c3ccccc3)coc2c1 [Analog 35, 7-Ethylisoflavone]
other
  melting point: 103 to 104 °C

## O=c1c(-c2ccc(O)cc2)coc2cc(O)ccc12 [Analog 40]
[2]
  IC50: 12 µM
[4]
  EtOH intake suppression, %: 22 ± 5%

## CCO [Ethanol, ethanol]
[5]
  Effect on 5-HT metabolism (in words): did not effect 5-HT metabolism
[6]
  Effect on 5-HT metabolism (in words): did not effect 5-HT metabolism

## O=C(O)CCCCCOc1ccc2c(=O)c(-c3ccc(O)cc3)coc2c1 [Hexzein, 7-O-ω-carboxypentyldaidzein]
[7]; 2 mg/g hexzein-Chow
  Ethanol intake reduced by: 18.3±3.8%
[7]; 4 mg/g hexzein-Chow
  Ethanol intake reduced by: 47.8±7.4%
[7]; 5 mg/g hexzein-Chow
  Ethanol intake reduced by: 56.5±5.4%
[8]; hamster, in vivo
  Concentration found in the liver (in words): pharmacologically relevant concentrations
[4]
  EtOH intake suppression, %: 69 ± 12%

## Daidzin [Analog 42]
[7]; oral in chow, similar manner and equivalent dose range
  Effect on ethanol intake (in words): failed to reduce ethanol intake
[8]; hamsters on compound-Chow
  Concentration found in the liver (in words): no daidzin could be detected
[9]
  5-HT depletion: not 5-HT depletion
  5-HTOL formation: increases in the formation of 5-HTOL
[9]; 1 μM 5-HT, 30 min at 37° C.
  5-HIAA formation: inhibited 5-HIAA formation
[10]
  5-HT depletion: not 5-HT depletion
  5-HTOL formation: increases in the formation of 5-HTOL
[10]; 1 μM 5-HT, 30 min at 37° C.
  5-HIAA formation: inhibited 5-HIAA formation
[5]
  Effect on 5-HT metabolism (in words): did not effect 5-HT metabolism
[6]
  Effect on 5-HT metabolism (in words): did not effect 5-HT metabolism
[11]
  urine [5-HTOL]/[5-HIAA] ratio: increased urine [5-HTOL]/[5-HIAA] ratio
[4]
  EtOH intake suppression, %: about 55%
[12]; administered orally
  Ethanol intake (in words): does not affect hamster ethanol intake
[12]; ethanol-preferring Syrian golden hamsters
  Ethanol intake (in words): selectively suppress ethanol intake
[13]
  Ethanol intake (in words): selectively suppress ethanol intake
[14]
  Conversion of 5-HT and DA into 5-HIAA and DOPAC: inhibits the conversion of monoamines
[15]
  Conversion of 5-HT and DA into 5-HIAA and DOPAC: inhibits the conversion of monoamines
